Series [1] relates to Phaseolus lunatus. The series is described as follows: Phytotoxicity in Phaseolus lunatus (lima bean) root assessed as root dry weight at 2.12 kg ai/ha applied to soil measured up to 7 days under green house conditions (reference value: 0.36 +/- 0.071 g). As to conditions: in vivo, other, 168 h. The class given is organism-based.
For a further series, the system named is Gossypium hirsutum. The series is described as follows: Phytotoxicity in Gossypium hirsutum (cotton) assessed as concentration required to cause foliar edge burn applied through foliar spray after 4 weeks. The note with it: in vivo, other, 672 h. The series is classed as organism-based.
For another series, the system named is Spodoptera exigua. The series is described as follows: Insecticidal activity against Spodoptera exigua infested tomato assessed as mortality applied through foliar spray after 72 hr. The class given is functional.
Series [2] has as its system Meloidogyne incognita. Kind of series: Nematicidal activity against second juvenile stage of Meloidogyne incognita (root-knot nematode) infected lima bean plant assessed as shoot dry weight at 2 kg ai/ha applied to soil measured during planting under green house conditions (reference value: 1.84 +/- 0.18 g). The class given is functional.
Series [3] has as its system Meloidogyne incognita. The series is described as follows: Nematicidal activity against second juvenile stage of Meloidogyne incognita (root-knot nematode) infected pea plant assessed as plant fresh weight at 4 kg ai/ha applied to soil measured up to 7 days post planting under green house conditions (reference value: 4.3 +/- 0.56 g). The series is classed as functional.

Series [4] concerns Meloidogyne incognita. The series is described as follows: Nematicidal activity against second juvenile stage of Meloidogyne incognita (root-knot nematode) infected pea plant assessed as root dry weight at 3 kg ai/ha applied to soil measured up to 14 days post planting under green house conditions (reference value: 0.25 +/- 0.041 g). The class given is functional.
Series [5] has as its system Meloidogyne incognita. The series is described as follows: Nematicidal activity against second juvenile stage of Meloidogyne incognita (root-knot nematode) infected pea plant assessed as plant emergence at 3 kg ai/ha applied to soil measured up to 7 days post planting under green house conditions (reference value: 75 +/- 13%). The series is classed as functional.
Series [6] deals with Meloidogyne incognita. The series is described as follows: Nematicidal activity against second juvenile stage of Meloidogyne incognita (root-knot nematode) infected pea plant assessed as reduction in root gall index at 4 kg ai/ha applied to soil measured up to 14 days post planting under green house conditions (reference value: 9.7 +/- 0.30%). The series is classed as functional.

For series [7], the system named is Meloidogyne incognita. The series is described as follows: Nematicidal activity against second juvenile stage of Meloidogyne incognita (root-knot nematode) infected pea plant assessed as root fresh weight at 4 kg ai/ha applied to soil measured up to 7 days post planting under green house conditions (reference value: 1.83 +/- 0.3 g). The series is classed as functional.

Series [8] deals with Phaseolus lunatus. Kind of series: Phytotoxicity in Phaseolus lunatus (lima bean) plant assessed as plant dry weight at 3.12 kg ai/ha applied to soil measured up to 14 days under green house conditions (reference value: 1.20 +/- 0.21 g). The class given is organism-based. The note with it: in vivo, other, 336 h.
The test system of series [9] is Phaseolus lunatus. The series is described as follows: Phytotoxicity in Phaseolus lunatus (lima bean) plant assessed as emergence at 2.56 kg ai/ha applied to soil measured up to 14 days under green house conditions (reference value: 70 +/- 16%). As to conditions: in vivo, other, 336 h. The class given is organism-based.
Series [10] relates to Pisum sativum. Kind of series: Phytotoxicity in Pisum sativum (pea) assessed as root dry weight at 3 kg ai/ha applied to soil measured up to 14 days post planting at 27 degC under green house conditions (reference value: 0.33 +/- 0.075 g). The series is classed as organism-based. The note with it: lathyrus oleraceus, in vivo, other, 336 h.
Series [11] concerns Pisum sativum. Kind of series: Phytotoxicity in Pisum sativum (pea) assessed as plant fresh weight at 4 kg ai/ha applied to soil measured up to 7 days post planting at 19 degC (reference value: 9.4 +/- 0.54 g). The series is classed as organism-based. The note with it: lathyrus oleraceus, in vivo, other, 168 h.
The test system of series [12] is Pisum sativum. Kind of series: Phytotoxicity in Pisum sativum (pea) assessed as plant fresh weight at 3 kg ai/ha applied to soil measured up to 7 days post planting at 27 degC under green house conditions (reference value: 3.9 +/- 0.83 g). The class given is organism-based. The note with it: lathyrus oleraceus, in vivo, other, 168 h.
In series [13] the test system is Pisum sativum. The series is described as follows: Phytotoxicity in Pisum sativum (pea) assessed as plant height at 3 kg ai/ha applied to soil measured up to 7 days post planting at 19 degC (reference value: 6.2 +/- 0.6 cm). As to conditions: lathyrus oleraceus, in vivo, other, 168 h. The class given is organism-based.
Series [14] concerns Pisum sativum. Kind of series: Phytotoxicity in Pisum sativum (pea) assessed as emergence at 4 kg ai/ha applied to soil measured up to 7 days post planting at 19 degC relative to untreated control. The class given is organism-based. The note with it: lathyrus oleraceus, in vivo, other, 168 h.
Series [15] deals with Pisum sativum. Kind of series: Phytotoxicity in Pisum sativum (pea) assessed as emergence at 3 kg ai/ha applied to soil measured up to 7 days post planting at 27 degC under green house conditions (reference value: 70 +/- 3.3%). As to conditions: lathyrus oleraceus, in vivo, other, 168 h. The class given is organism-based.
Series [16] relates to Pisum sativum. Kind of series: Phytotoxicity in Pisum sativum (pea) assessed as emergence at 2 kg ai/ha applied to soil measured up to 7 days post planting at 27 degC under green house conditions (reference value: 70 +/- 3.3%). The class given is organism-based. As to conditions: lathyrus oleraceus, in vivo, other, 168 h.
Series [17] relates to Meloidogyne incognita. Kind of series: Nematicidal activity against second juvenile stage of Meloidogyne incognita (root-knot nematode) infected lima bean plant assessed as reduction in root gall index at 3 kg ai/ha applied to soil measured up to 7 days post planting under green house conditions (reference value: 7 +/- 0.27%). The class given is functional.
Series [18] deals with Meloidogyne incognita. The series is described as follows: Nematicidal activity against second juvenile stage of Meloidogyne incognita (root-knot nematode) infected lima bean plant assessed as reduction in root gall index at 2 kg ai/ha applied to soil measured up to 7 days post planting under green house conditions (reference value: 7 +/- 0.27%). The series is classed as functional.

Series [19] relates to Meloidogyne incognita. The series is described as follows: Nematicidal activity against second juvenile stage of Meloidogyne incognita (root-knot nematode) infected lima bean plant assessed as emergence at 4 kg ai/ha applied to soil measured up to 14 days post planting under green house conditions (reference value: 83 +/- 5%). The series is classed as functional.
Series [20] relates to Meloidogyne incognita. The series is described as follows: Nematicidal activity against second juvenile stage of Meloidogyne incognita (root-knot nematode) infected lima bean plant assessed as emergence at 3 kg ai/ha applied to soil measured up to 7 days post planting under green house conditions (reference value: 83 +/- 5%). The series is classed as functional.

Each structure is given as a SMILES string. ≈ marks a conversion by molar mass, not a printed value.

As a reminder, the LC50 is the concentration that kills 50% of the test population.

As to `CNC(=O)ON=C(C)SC` [METHOMYL], the Activity in the series with Phaseolus lunatus [1] came out at 0.2 g; in the series on Gossypium hirsutum, 500 µg/mL; in the series with Meloidogyne incognita [2], 1.59 g; in the series on Meloidogyne incognita [3], 5.5 g; in the series on Meloidogyne incognita [4], 0.25 g; with Meloidogyne incognita [5] it was 13%. The Activity in the series with Meloidogyne incognita [7] is given as 1.59 g; in the series on Phaseolus lunatus [8], 0.87 g; in the series with Phaseolus lunatus [9], 80%; with Pisum sativum [10], 0.27 g; in the series on Pisum sativum [11], 8.5 g; in the series with Pisum sativum [12], 3.3 g. Also, the Activity in the series with Pisum sativum [13] turned out to be 6.9 cm; with Pisum sativum [14], 100%; with Pisum sativum [15], 70%; in the series with Pisum sativum [16] it was 50%; in the series with Meloidogyne incognita [19], 83%; in the series on Meloidogyne incognita [20], 83%. For the same compound, the LC90 in the series with Spodoptera exigua stood at 60 µg/mL (≈ 370 µM). Further, in the series on Spodoptera exigua (Spodoptera exigua, foliar, 72 h), the LC50 amounted to 29 µg/mL (≈ 179 µM). Besides, the Root_galling_index in the series on Meloidogyne incognita [6], in the series with Meloidogyne incognita [17] and in the series with Meloidogyne incognita [18] was 0% throughout.

(Values after ChEMBL document CHEMBL3045068, “Effect of methomyl and oxamyl soil applications on early control of nematodes and insects” (Pest Manag Sci, 2011).)
